Assay results reported in PMC5059567 (International Journal of Endocrinology, 2016).

What was measured:
ATC = ATC patients; cited from earlier work
CYP3A4 = details: preclinical in vitro; read-out: Ki (CYP3A4 inhibition); cited from earlier work
ATC cell lines = details: combination with TAX; cited from earlier work
P-gp = details: preclinical in vitro and in vivo experiments; cited from earlier work
Serum levels of VPA = assay type: in vivo, human; details: oral 1,000 mg valproate daily, after two weeks of treatment; range 50–72
Description: Drug measurement was performed using the Dimension Vista System (Siemens, Healthcare, Erlangen, Germany). The therapeutic range was […].

[1] = Pharmacokinetics of TAX in plasma (noncompartmental, HPLC-UV); assay type: in vivo, human
Description: Blood samples were centrifuged immediately for 10 min at 1,000 ×g at room temperature and the resulting plasma was frozen and stored at −80°C until analysis.
Briefly, a volume of 200 μL of acetonitrile, 300 μL of deionized water, and 5 mL of tertbutylmethylether was added to 100 μL of plasma samples in borosilicate glass tubes. The mixture was vortexed for 30 sec and centrifuged at 2,500 ×g for 15 min. Upon centrifugation, 3 mL of the organic layer was transferred to a clean glass tube and evaporated to dryness under nitrogen. The residue was then reconstituted with 200 μL of 60% acetonitrile in deionized water and mixed on a vortex mixer for 90 sec; then 100 μL of the reconstituted sample was injected into the HPLC system equipped with a Symmetry C18 column (250 × 4.6 mm i.d., particle size 5 μm) and a Symmetry C18 guard column supplied by Waters (Vimodrone, Milan, Italy). Chromatographic analysis was performed at room temperature (20 ± 2°C) by isocratic elution with a mobile phase consisting in a mixture of acetonitrile—0.1% phosphoric acid in deionized water (60 : 40, v/v) (Milli-Q Plus System, Millipore, Milford, MA, USA) at a flow-rate of 1.0 mL/min.
The Mann–Whitney nonparametric test was used to compare pharmacokinetic values of the two different groups of patients; statistical evaluation was performed using Instat 3.05 software (Graphpad, San Diego, USA).

patients affected by ATC [2] = assay: Safety/toxicity in the trial (Common Toxicity Criteria, serum biochemistry); assay type: in vivo, human; details: ATC patients enrolled in the study
Description: Hemogram, serum biochemistry, and electrolyte levels were measured before each chemotherapy cycle and when clinically indicated; toxicity was evaluated according to the Common Toxicity Criteria (CTC). […] In the presence of Grade 4 toxicity or in case of severe allergic reaction, treatment was definitively stopped.

patients affected by ATC [3] = assay: Randomized phase II/III trial: overall survival and progression-free survival; assay type: in vivo, human; details: TAX 80 mg/m^2 weekly i.v. with or without VPA 1,000 mg/day p.o.
Description: The diagnosis was obtained by cytological examination of specimens following fine-needle aspiration and was confirmed by histologic examination in all patients who underwent surgery. Examination was performed by two different pathologists with proven experience in thyroid cancer. Inclusion criteria were (a) patients with radiologically or clinically confirmed disease progression during or after multimodal therapy (surgery, if performed, first-line systemic chemotherapy with doxorubicin and cisplatin, and external beam radiation (EBR)); (b) patients not eligible for surgery or EBR because of tumor local invasion or severe comorbidities. […] Patients or their legal representatives needed to be able to read, understand, and provide written informed consent to participate in the trial, according to the Declaration of Helsinki.
In the absence of disease progression, patients of both groups were treated up to 18 chemotherapy cycles. Primary outcomes were (1) overall survival and (2) disease progression, evaluated in terms of progression-free survival (PFS). The extent of thyroid neoplasia and secondary lesions were assessed at the beginning of treatment by computer tomography (CT) scans of head, neck, chest, and abdomen. Local recurrence or lymph node metastases were evaluated also by high definition neck ultrasonography (US). […]

[4] = human, intravenous, 80 mg/m^2, plasma, first chemotherapy cycle, 10 patients per group

## COc1ccc(C[C@@H](O)c2cc(OC)c(OC)c(OC)c2)cc1O [combretastatin]
ATC
  median survival reported in clinical trials: 5.2 months

## CNC(=O)c1cc(Oc2ccc(NC(=O)Nc3ccc(Cl)c(C(F)(F)F)c3)cc2)ccn1 [sorafenib]
ATC
  median survival reported in clinical trials: 3.9 months

## CCCC(CCC)C(=O)O [VPA, valproic acid]
CYP3A4
  Ki: […]
ATC cell lines
  VPA dose at which enhancement of TAX cytostatic and cytotoxic activity was reached: 0.7 mM
P-gp
  P-gp expression: induce the overexpression
Serum levels of VPA
  valproate blood levels: 67 µg/mL
[1]; VPA 1,000 mg/day coadministered, Mann–Whitney test
  influence of coadministration on the pharmacokinetics of TAX: […]

## Cc1ccc(Nc2nccc(N(C)c3ccc4c(C)n(C)nc4c3)n2)cc1S(N)(=O)=O [pazopanib]
ATC
  median survival reported in clinical trials: 111 days

## CC(=O)O[C@H]1C(=O)[C@@]2(C)[C@H]([C@H](OC(=O)c3ccccc3)[C@]3(O)C[C@H](OC(=O)[C@H](O)[C@@H](NC(=O)c4ccccc4)c4ccccc4)C(C)=C1C3(C)C)[C@]1(OC(C)=O)CO[C@@H]1C[C@@H]2O [TAX, paclitaxel]
Patients affected by ATC [2]
  severe adverse effect: No severe adverse effect
Patients affected by ATC [3]; Kaplan-Meier from enrollment, P = 0.9
  Median survival: 148 days
Patients affected by ATC [3]; P = 0.6
  Median time to progression: 51 days
[1]; [4]
  Cmax: 1160 ng/mL
  Vd: 52.1 L
  clearance: 664 mL/min
  half-life: 2.03 h
  k el: 9.44e-05 s⁻¹
